PubChem BioAssay (NCI)
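Cells were grown in 96-well plates and exposed to each compound for 48 hours at five concentrations; endpoints were interpolated linearly between bracketing concentrations, or set to the highest concentration if not reached. The concentration for 50% growth inhibition is given as GI50. TGI is the concentration that stops growth completely.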

What was measured:
Test in all cases: growth of human tumour cells (NCI), 48 h
CCRF-CEM leukemia = test system: CCRF-CEM leukemia
EKVX NSCLC = test system: EKVX NSCLC
HCT-116 colon = test system: HCT-116 colon
HCT-15 colon = test system: HCT-15 colon
HT29 colon = test system: HT29 colon
K-562 leukemia = test system: K-562 leukemia
RXF 393 renal = test system: RXF 393 renal
SF-268 CNS = test system: SF-268 CNS
SF-539 CNS = test system: SF-539 CNS
SNB-19 CNS = test system: SNB-19 CNS

Row | SMILES | TGI (CCRF-CEM leukemia) [µM] | TGI (EKVX NSCLC) [µM] | TGI (HCT-116 colon) [µM] | TGI (HCT-15 colon) [µM] | TGI (HT29 colon) [µM] | TGI (K-562 leukemia) [µM] | TGI (RXF 393 renal) [µM] | TGI (SF-268 CNS) [µM] | TGI (SF-539 CNS) [µM] | TGI (SNB-19 CNS) [µM] | GI50 (CCRF-CEM leukemia) [µM] | GI50 (EKVX NSCLC) [µM] | GI50 (HCT-116 colon) [µM] | GI50 (HCT-15 colon) [µM] | GI50 (HT29 colon) [µM] | GI50 (K-562 leukemia) [µM] | GI50 (RXF 393 renal) [µM] | GI50 (SF-268 CNS) [µM] | GI50 (SF-539 CNS) [µM] | GI50 (SNB-19 CNS) [µM]
1 | COc1cccc2c1C(=O)C=CC2=O | 1.65 | 32.8 | 12.1 | 24.2 | 26.9 | 4.97 | 17.7 | 19.8 | 30.1 | 29.3 | – | – | – | – | – | – | – | – | – | –
2 | F | > 6870 | 5220 | > 6870 | > 6870 | 6180 | > 6870 | 5200 | > 6870 | 4620 | > 6870 | 4540 | 2100 | 2820 | 3800 | 2110 | 3630 | 2360 | 3540 | 1770 | 6220
3 | C=C1C(=O)O[C@H]2[C@H]1CC/C(CNC(=O)Cc1c[nH]c3ccccc13)=C\CC[C@@]1(C)O[C@@H]21 | 1.02 | 22.4 | 2.55 | 13.1 | 11.1 | 11.1 | 5.65 | 16.3 | 9.1 | 35.2 | 0.303 | 10.6 | 0.533 | 1.58 | 0.451 | 0.337 | 1.3 | 2.62 | 1.92 | 15
4 | CN(Cc1cnc2nc(N)nc(N)c2n1)c1ccc(C(=O)NC(CCC(=O)O)C(=O)O)cc1C(F)(F)F (centres undefined) | 0.486 | > 100 | > 100 | > 100 | > 100 | > 100 | > 100 | > 100 | > 100 | > 100 | – | – | – | – | – | – | – | – | – | –
5 | C/C(=N\NC(=O)c1sc(=S)n(C)c1N)c1cc2ccccc2o1 | 31 | 29.3 | 32 | 24.9 | 18.9 | 30.8 | 27.8 | 37.4 | 25.9 | 45.6 | 10.6 | 11.9 | 16.2 | 10.6 | 5.05 | 6.38 | 13.2 | 14.4 | 12.9 | 17.1
6 | COc1ccc(-c2cc(-c3cc(Cl)ccc3Cl)nc3n[nH]c(N)c23)cc1 | 90.7 | > 100 | 29.3 | > 100 | > 100 | > 100 | > 100 | 24.5 | 59 | > 100 | 31 | 34.6 | 6.32 | 11.6 | 6.32 | 15.8 | 29.5 | 4.32 | 25.2 | 31.8
7 | Cn1cc(-c2ccc3c(Nc4cccc(NC(=O)Nc5cccc(F)c5)c4)ncnc3c2)cn1 | 13.7 | 24.3 | 7.9 | 13.1 | 12.6 | > 100 | 3.83 | 11.2 | 2.21 | 13.5 | 0.0474 | 6.22 | 2.04 | 2.5 | 1.97 | 2.14 | 1.2 | 1.64 | 0.0554 | 3.16
8 | O=C(O)CCNc1ccccc1C(=O)O | > 100 | > 100 | > 100 | > 100 | > 100 | > 100 | > 100 | > 100 | > 100 | > 100 | – | – | – | – | – | – | – | – | – | –
9 | CCOc1ccccc1NC(=O)CC1C(=O)Nc2ccccc2S1=O (centres undefined) | > 100 | > 100 | > 100 | > 100 | > 100 | > 100 | > 100 | > 100 | > 100 | > 100 | – | – | – | – | – | – | – | – | – | –
10 | CC[C@]1(O)CC(OC2CC(N(C)C)C(O)C(C)O2)c2c(cc3c(c2O)C(=O)c2c(O)cccc2C3=O)[C@@H]1C(=O)OC (some centres undefined) | 3.39 | 3.86 | 10.4 | 2.75 | 5.09 | 0.982 | 1.76 | 2.2 | 2.51 | 7.03 | – | – | – | – | – | – | – | – | – | –
11 | O=C(Nc1ccccc1-c1n[nH]c(=S)[nH]c1=O)C(F)(F)F | > 100 | > 100 | > 100 | > 100 | > 100 | > 100 | > 100 | > 100 | > 100 | > 100 | – | – | – | – | – | – | – | – | – | –
12 | CC1(C)N=C(N)N=C(N)N1c1cccc(CCCCc2cccc(S(=O)(=O)F)c2)c1 | 53.4 | > 100 | > 100 | > 100 | > 100 | > 100 | > 100 | 20.8 | 18.8 | > 77.7 | 0.559 | 19.2 | 0.445 | 14.1 | 0.26 | 0.657 | 2.13 | 0.887 | 0.773 | 1.53
13 | Cc1cccc(NC(=O)CCc2ccc(N3C(N)=NC(N)=NC3(C)C)cc2)c1 | > 100 | > 100 | > 100 | > 100 | > 100 | > 100 | > 100 | > 100 | > 100 | > 100 | 1.07 | – | 0.632 | > 100 | 0.364 | 0.715 | > 42.1 | 0.547 | 1.93 | 8.35
14 | COc1ccc(C2CC(c3cc(OC)c(OC)c(OC)c3)=NO2)cc1OCCCCOc1cc2c(cc1OC)C(=O)N1CCC[C@H]1C=N2 (some centres undefined) | 4.27 | 25 | 3.89 | 5.54 | 8.38 | 6.74 | 2.72 | 4.16 | 3.46 | 4.97 | 1.41 | 3.68 | 1.7 | 2.27 | 2.75 | 1.26 | 1.39 | 1.89 | 1.8 | 1.96
15 | Cc1c2cc[n+](C)cc2c(C)c2c1sc1ccccc12 | 13.8 | > 50.2 | 23.7 | > 100 | 25.4 | 41.3 | 12 | 1.14 | 2.01 | 2 | – | – | – | – | – | – | – | – | – | –
